Patent publication US10675268B2, “Somatostatin receptor subtype 4 (SSTR4) agonists” (Centrexion Therapeutics Corporation, priority 2013, dated 2020)

Experiment: Metabolic stability in pooled human liver microsomes (half-life)
Assay type: in vitro ADME
Details: 37° C., 1 μM test compound
Procedure: The metabolic stability of the compounds according to the invention may be investigated as follows:
The metabolic degradation of the test compound is assayed at 37° C. with pooled human liver microsomes. The final incubation volume of 100 μl per time point contains TRIS buffer pH 7.6 at room temperature (0.1 M), magnesium chloride (5 mM), microsomal protein (1 mg/mL) and the test compound at a final concentration of 1 μM. Following a short preincubation period at 37° C., the reactions are initiated by addition of beta-nicotinamide adenine dinucleotide phosphate, reduced form (NADPH, 1 mM), and terminated by transferring an aliquot into solvent after different time points. After centrifugation (10000 g, 5 min), an aliquot of the supernatant is assayed by LC-MS/MS for the amount of parent compound. The half-life is determined by the slope of the semi-logarithmic plot of the concentration-time profile.

Half-life t1/2 | SMILES
>2.17 h | CC(C)(NC(=O)[C@H]1[C@@H]2CNC[C@@H]21)c1n[nH]c2ccccc12 [Example 94]
>2.17 h | Cc1cccc2c(C(C)(C)NC(=O)[C@H]3[C@@H]4CNC[C@@H]43)n[nH]c12 [Example 93]
>2.17 h | CC(C)(NC(=O)[C@H]1[C@@H]2CNC[C@@H]21)c1n[nH]c2c(C(F)(F)F)cccc12 [Example 110]
>2.17 h | Cc1cc(C2CC2)ccc1OCC(C)(C)NC(=O)[C@H]1[C@@H]2CNC[C@@H]21 [Example 65]
>2.17 h | CCc1ccccc1OCC(C)(C)NC(=O)[C@H]1[C@@H]2CNC[C@@H]21.Cl [Example 39]
